Among the test systems are A549; BT-549; COLO 205; DU-145; HCT-15; HL-60; HOP-92; M14; MDA-MB-435; MDA-N; NCI-H226; NCI-H522; OVCAR-5; OVCAR-8; PC-3; RPMI-8226; RXF 393; SF-268; UACC-257; UO-31.
Common to all, as to assay: NCI-60 cell line screen, 48 h

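Cultured in 96-well plates, cells were exposed to test compound for 48 hours across five concentrations. The concentration for 50% growth inhibition is given as GI50.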 Activity calls are given as the source filed them. Cut-off read from the data, not from the text of the source: active = GI50 up to about 1.1 µM and inactive = higher. Where only a bound is given, the exact number is not on record here.

With `COc1nc2ncc([C@@H](O)[C@H](O)CO)nc2c(=O)[nH]1`, the GI50 was > 100 µM (inactive) in the experiment on A549; 99.1 µM (inactive) in the experiment with BT-549; > 100 µM (inactive) with COLO 205; > 100 µM (inactive) with DU-145; greater than 100 µM in the experiment with HCT-15; 63.2 µM (inactive) in the experiment with HL-60. Moreover, the GI50 in the experiment on HOP-92, in the experiment with M14, in the experiment with MDA-MB-435, in the experiment on MDA-N, with NCI-H226 and with NCI-H522 was > 100 µM (inactive) throughout. Besides, the GI50 in the experiment with OVCAR-5, with OVCAR-8, in the experiment on PC-3, with RPMI-8226, with RXF 393 and in the experiment on SF-268 was > 100 µM (inactive) each time. The GI50 with UACC-257 and in the experiment with UO-31 was > 100 µM (inactive) in each case.

As for `CCOc1cc2c(NCCCN(CCO)CCO)ncnc2c(OCC)c1OCC`, the GI50 with A549 is > 94.4 µM (inactive); in the experiment with BT-549, > 76.4 µM (inactive); with COLO 205, 69.3 µM (inactive); with DU-145, > 100 µM (inactive); in the experiment on HCT-15, greater than 100 µM; in the experiment on HL-60, > 89.1 µM (inactive). Further, the GI50 in the experiment with HOP-92 was 34.3 µM (inactive); in the experiment with M14 it was > 83.2 µM (inactive); in the experiment with MDA-MB-435, > 100 µM (inactive); in the experiment on MDA-N, > 100 µM (inactive); in the experiment on NCI-H226 it was 21.7 µM (inactive); in the experiment on NCI-H522 it was > 100 µM (inactive). Besides, the GI50 was > 100 µM (inactive) with OVCAR-5; > 100 µM (inactive) in the experiment on OVCAR-8; > 100 µM (inactive) in the experiment with PC-3; > 100 µM (inactive) with RPMI-8226; > 82 µM (inactive) in the experiment on RXF 393; > 100 µM (inactive) in the experiment with SF-268. The GI50 was > 83.2 µM (inactive) with UACC-257 and > 100 µM (inactive) in the experiment on UO-31.

In the case of `CC12CC(c3ccccc3O1)C(C(=O)Nc1nccs1)C(=O)N2` (stereo not given), the GI50 in the experiment on A549 is > 100 µM (inactive); in the experiment with BT-549, > 100 µM (inactive); in the experiment on COLO 205 it was > 100 µM (inactive); in the experiment on DU-145, > 100 µM (inactive); in the experiment on HCT-15, greater than 100 µM; in the experiment with HL-60, > 100 µM (inactive). In addition, the GI50 with HOP-92 is 84.3 µM (inactive); with M14, > 100 µM (inactive); in the experiment with MDA-MB-435, > 100 µM (inactive); in the experiment on MDA-N, > 100 µM (inactive); in the experiment on NCI-H226, > 100 µM (inactive); in the experiment on NCI-H522, > 100 µM (inactive). Moreover, the GI50 in the experiment with OVCAR-5 was > 100 µM (inactive); in the experiment on OVCAR-8, > 100 µM (inactive); with PC-3 it was > 100 µM (inactive); in the experiment with RPMI-8226, 98.4 µM (inactive); in the experiment on RXF 393, > 100 µM (inactive); with SF-268, > 100 µM (inactive). Besides, the GI50 in the experiment with UACC-257 and in the experiment with UO-31 was > 100 µM (inactive) in each case.

On to `O=C1Nc2c(Cl)cc(Cl)cc2/C1=N/Nc1ccccc1[N+](=O)[O-]`, for which the GI50 is 69.2 µM (inactive) in the experiment on A549; 9.68 µM (inactive) in the experiment with BT-549; 92.5 µM (inactive) in the experiment on COLO 205; > 100 µM (inactive) in the experiment with DU-145; 72.1 µM with HCT-15; 16.6 µM (inactive) in the experiment on HL-60. Also, the GI50 with HOP-92 is 12 µM (inactive); in the experiment with M14, 39.3 µM (inactive); in the experiment on MDA-MB-435, > 100 µM (inactive); in the experiment with MDA-N it was > 100 µM (inactive); in the experiment with NCI-H226 it was 49 µM (inactive); in the experiment with NCI-H522, 35.2 µM (inactive). Moreover, the GI50 is > 100 µM (inactive) in the experiment with OVCAR-5; 30.3 µM (inactive) in the experiment on OVCAR-8; 40.8 µM (inactive) with PC-3; > 100 µM (inactive) in the experiment on RPMI-8226; 14.2 µM (inactive) with RXF 393; 25.1 µM (inactive) with SF-268. In addition, the GI50 in the experiment with UACC-257 and in the experiment on UO-31 was > 100 µM (inactive) throughout.

The values are drawn from ChEMBL document CHEMBL1201862, “PubChem BioAssay data set” (2004).
